Consider 1 compound from patent US9782379B2, “Use of protectin DX for the stimulation of muscular IL-6 secretion” (Universite Laval, priority 2013, dated 2017).

Experiment [1] concerns genetically obese db/db mice. In words: 4 mU/kg hyperinsulinemic-isoglycemic clamp in db/db mice, acute PDX. It counts as in vivo. The protocol:
The 4 mU/kg hyperinsulinemic-isoglycemic clamp study was performed in 10 week old db/db mice from the BKS.Cg-Dock7^m+/+Lepr^db/J strain at Jackson Labs. Mice were randomly assigned to vehicle or PDX treatment groups. In preparation for the clamps mice were catheterized as described for the lipid infusion study. Mice were administered 2 ug of PDX or an equal volume of vehicle i.v. at 4 h and also 90 minutes prior to the initiation of the insulin pump. Pre-clamp glycemia was taken immediately prior to the second PDX shot. The clamp began 90 minutes later with a primed-continuous infusion of human insulin (16 mU/kg bolus followed by 4 mU·kg^−1·min^−1, Humulin R; Eli Lilly, Indianapolis, Ind.). Glycemia was maintained as close as possible to individual fasting values by infusing 20% dextrose as necessary. Blood samples were taken continuously to determine glycemia as well as insulin concentrations. Mice received saline-washed erythrocytes from donor mice throughout the experimental period (5-6 μl·min-1) to prevent a fall of ≧5% hematocrit.
We further explored the therapeutic efficacy of PDX in genetically obese db/db mice, a well-established model of T2D. Here we tested the ability of PDX to rapidly alleviate insulin resistance using a 4 mU/kg hyperinsulinemic-isoglycemic clamp (see design in FIG. 1). In these experiments, db/db mice were treated with vehicle or PDX (2 μg i.v.) 240 and 90 minutes prior to the initiation of the clamp.

For a further experiment, the system named is T37i brown adipocytes. In words: IL-6 release from cultured brown adipocytes. The format is cell-based. The settings on record: norepinephrine 1 μM as adrenergic stimulus. The text has this:
Since brown adipose tissue was recently shown to regulate glucose homeostasis via secretion of IL-6^20 we also examined whether PDX might raise circulating IL-6 by stimulating brown fat.

The subject of another experiment is J77A4 macrophages. In words: IL-6 release from cultured macrophages in the absence of palmitate stimulation. It counts as cell-based, murine. From the text:
(a-b) Skeletal muscle and liver IL-6 protein expression. (c) Total plasma adiponectin. (d) Immunoblots for pAMPK thr172 and total AMPK in skeletal muscle. (e) Immunoblots for pSTAT-3 ser727 and total STAT-3 in liver. Quantification of densitometry analyses for immunoblots are shown below the representative gels. In each case lanes were run on the same gel but were noncontiguous. (f-h) Relative mRNA expression for Ppargc1, Pck1 and G6Pc in liver. All genes were normalized to GAPDH using the delta delta CT method. All data are mean±SEM, n=6, *P<0.05, **P<0.01 vs Saline; ^†P<0.05, ^††P<0.01vs Lipid. (i) IL-6 in media of C2C12 myotubes exposed to PDX for 2 h. (j) IL-6 mRNA expression in C2C12 myotubes exposed to PDX for 2 h. (k) Immunoblots for pAMPK thr172 and total AMPK in C2C12 myotubes exposed to PDX for 2 h. Quantification of densitometry analyses for immunoblots are shown below the representative gels. Lanes were run on the same gel but were noncontiguous. Data are mean±SEM of three independent experiments. *P<0.05, **P<0.01 vs vehicle. (I) IL-6 in media of C2C12 myotubes exposed to Veh, or 100 nM of PDX, PD1, 8(S),15(s)-DiHETE, or RvD1. Data are mean±SEM of three independent experiments. **P<0.01 vs vehicle. (m) IL-6 in media of J77A4 macrophages treated with Veh, LPS, or PDX (10, 100, or 1000 nM) for 30 min, 2 h and 8 h. (n) Immunoblots for pAMPK thr172 and total AMPK in C2C12 myotubes exposed to PDX for 2h. Quantification of densitometry analyses for immunoblots are shown below the representative gels. Data are mean±SEM of three independent experiments. **P<0.01 vs vehicle.
In order to address the dichotomy in PDX's effect on IL-6 release from muscle versus macrophages, we next examined the impact of PDX on IL-6 release from cultured macrophages in the absence of palmitate stimulation (FIG. 5m). […] Since activation of AMPK represses inflammatory cytokine production in macrophages^19 this may explain the opposing effect of PDX on IL-6 expression and release in skeletal myotubes and activated macrophages.

Regarding `CC/C=C\C[C@H](O)/C=C/C=C\C=C\[C@@H](O)C/C=C\C/C=C\CCC(=O)O` [PDX, 10S,17S-dihydroxy-docosa-4Z,7Z,11E,13Z,15E,19Z-hexaeonic acid], in experiment [1] (PDX 2 μg i.v. 240 and 90 minutes prior to clamp), the “lowering of pre-clamp glycemia” value is “did not reach statistical significance”. The “improvement of the GIR during the clamp” value in experiment [1] (PDX 2 μg i.v. 240 and 90 minutes prior to clamp, P<0.01) is given as 3.6 fold. Moreover, the “PGC-1α, PEPCK, and G6Pase mRNA expression in liver” value in experiment [1] (PDX 2 μg i.v. x2) is on record as “enhanced suppression”. In addition, the “IL-6 in the skeletal muscle and plasma” value in experiment [1] (PDX 2 μg i.v. x2, P<0.01) is recorded as “increased”. The “adipose tissue chemokines or cytokines” value in experiment [1] (epididymal adipose tissue) is recorded as “absence of any significant anti-inflammatory impact”. In addition, in the experiment on T37i brown adipocytes, the “release of IL-6” value was “not able to stimulate”. For the same compound, the AMPK phosphorylation result in the experiment on J77A4 macrophages (P<0.01) is recorded as “promote AMPK phosphorylation”. The “IL-6 mRNA expression” value with J77A4 macrophages (no palmitate) is given as “does not stimulate”. In addition, the IL-6 release result in the experiment on J77A4 macrophages (no palmitate, PDX 10, 100, or 1000 nM for 30 min, 2 h and 8 h) was “does not stimulate”.
